Reference: PubChem BioAssay (NCI)
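1) Cells in 96-well plates. 2) Compound, 48 h, 5 concentrations. 3) Linear interpolation between surrounding doses. 4) Unreached endpoint = highest concentration. GI50 = concentration required for 50% inhibition of growth. Definition used: TGI = concentration required for complete inhibition of growth.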

Assays:
Experiment in all cases: NCI anticancer screen, dose series, 48 h
SNB-19 CNS = test system: SNB-19 CNS
LOX IMVI melanoma = test system: LOX IMVI melanoma
HOP-92 NSCLC = test system: HOP-92 NSCLC
SN12C renal = test system: SN12C renal
SF-295 CNS = test system: SF-295 CNS
MCF7 breast = test system: MCF7 breast
SK-OV-3 ovarian = test system: SK-OV-3 ovarian
HCT-15 colon = test system: HCT-15 colon
MOLT-4 leukemia = test system: MOLT-4 leukemia
HT29 colon = test system: HT29 colon
NCI-H522 lung = test system: NCI-H522 lung

SMILES | TGI (SNB-19 CNS) [µM] | TGI (LOX IMVI melanoma) [µM] | TGI (HOP-92 NSCLC) [µM] | TGI (SN12C renal) [µM] | TGI (SF-295 CNS) [µM] | TGI (MCF7 breast) [µM] | TGI (SK-OV-3 ovarian) [µM] | TGI (HCT-15 colon) [µM] | TGI (MOLT-4 leukemia) [µM] | TGI (HT29 colon) [µM] | TGI (NCI-H522 lung) [µM] | GI50 (LOX IMVI melanoma) [µM] | GI50 (HOP-92 NSCLC) [µM] | GI50 (MCF7 breast) [µM] | GI50 (MOLT-4 leukemia) [µM]
Cc1cc(O)cc(O)c1C(=O)O[C@]1(C)C(=O)C=C2C=C(/C=C/C(=O)O)OC=C2C1=O | > 100 | > 100 | > 100 | > 100 | > 100 | > 100 | > 100 | > 100 | > 100 | > 100 | – | – | – | – | –
O=[N+]([O-])c1ccc(N2N=C(c3ccc4ccccc4c3O)CC2c2ccc(Cl)cc2)c([N+](=O)[O-])c1 (configuration not stated) | – | – | > 100 | > 100 | > 100 | > 100 | > 100 | > 100 | 49 | > 100 | 62.4 | – | – | – | –
CC(=O)Oc1cc(OC(C)=O)c2c(C)cc(=O)oc2c1 | > 100 | > 100 | – | > 100 | > 100 | > 100 | > 100 | > 100 | > 100 | > 100 | – | – | – | – | –
O=C1C2=C(SCCS2)C(=O)c2c(Sc3ccc(Cl)cc3)c(Sc3ccc(Cl)cc3)c(Sc3ccc(Cl)cc3)c(Sc3ccc(Cl)cc3)c21 | 88.6 | – | – | > 100 | > 100 | > 100 | > 100 | > 100 | 30.9 | – | – | – | – | – | –
CC(=O)OC(C)c1cc2c(s1)C(=O)c1c(C(C)OC(C)=O)csc1C2=O (configuration not stated) | – | – | 5.55 | 2.04 | 2.59 | 3.09 | 13.8 | 4.4 | 5.08 | 4.35 | – | – | – | – | –
c1csc(-c2ccsc2-c2ccsc2)c1 | – | > 100 | > 100 | > 100 | > 100 | > 100 | > 100 | > 100 | > 100 | > 100 | – | – | – | – | –
COC([C@@H](OC(=O)c1ccccc1)[C@H](OC(=O)c1ccccc1)C(O)COC(=O)c1ccccc1)n1cc(C)c(=O)[nH]c1=O (some centres not stated) | > 100 | > 100 | – | > 100 | 78.7 | 52.3 | > 100 | > 100 | 60.2 | 41.4 | > 100 | – | – | – | –
NC(CC(O)(c1ccccc1)c1ccccc1)c1ccccc1S (configuration not stated) | 32.4 | 30.5 | – | 44.1 | 31.4 | 29.9 | 37.6 | 33.6 | 59.6 | 37.5 | 30.3 | – | – | – | –
O=C1/C(=C/c2ccccc2)NC(=S)N1CN1CCCCC1 | > 100 | > 100 | > 100 | > 100 | > 100 | > 100 | > 100 | > 100 | > 100 | > 100 | – | – | – | – | –
CC1=CCC[C@H]2[C@](C)(CC3=CC(=O)C(Sc4ccccc4)=CC3=O)[C@@H](C)CC[C@]12C | 38.8 | 26.4 | 31.9 | 31.6 | 32.9 | 51.7 | – | 35.7 | 6.03 | – | – | 13.6 | 16.8 | 22.6 | 2.59
N[C@H](CCC(=O)NCP(=O)(O)O)C(=O)O | > 100 | – | – | > 100 | > 100 | > 100 | – | > 100 | > 100 | > 100 | > 100 | – | – | – | –
COc1ccc2[nH]c(C(=O)N3CC(CCl)c4c3cc(N)c3ccccc43)cc2c1 (configuration not stated) | < 0.0386 | 0.0223 | – | < 0.0183 | < 0.0172 | 0.0353 | 0.964 | 1.15 | < 0.0153 | 1.1 | – | – | – | – | –
NC(=Nc1ccccc1)c1ccccc1N | > 100 | > 100 | > 100 | – | > 100 | > 100 | > 100 | > 100 | > 100 | > 100 | – | – | – | – | –
CCOC(=O)c1[nH]c2cccc3c2c1CC[C@H](NC(=O)C(F)(F)F)C3=O | 46.3 | > 100 | 69.4 | > 100 | 72.4 | > 100 | – | > 100 | > 100 | > 100 | – | – | – | – | –
CC(=O)OCCCCn1cc(Cn2ccc(=O)n(Cc3cn(CCCCOC(C)=O)nn3)c2=O)nn1 | > 100 | > 100 | > 100 | > 100 | > 100 | > 100 | > 100 | > 100 | > 100 | – | – | – | – | – | –
Cc1c2ccccc2c(C)n2c1nc1ccccc12 | 68.3 | – | 45.2 | 30.9 | 25.3 | 13.3 | 27.1 | 65.7 | > 100 | 69 | – | – | – | – | –
Cc1ccc(S(=O)(=O)n2ccc(-c3ccc4ccn(S(=O)(=O)c5ccc(C)cc5)c4c3)c2)cc1 | > 100 | > 100 | – | > 100 | > 100 | > 100 | > 100 | > 100 | > 100 | > 100 | > 100 | – | – | – | –
CNC(=S)NNc1ncnc2c1ncn2-c1ccc(C)cc1 | > 100 | > 100 | > 100 | > 100 | > 100 | – | > 100 | > 100 | > 100 | > 100 | > 100 | – | – | – | –
